Laboratory results taken from PMC7311950, “Potent Tetrahydroquinolone Eliminates Apicomplexan Parasites” (Frontiers in Cellular and Infection Microbiology, 2020).
Entries after “also recorded” stand apart in the source; their conditions may differ.

Experiments:
[1] = test system: Human Foreskin Fibroblast (HFF); test: Cytotoxicity assay, WST-1 cell proliferation reagent on HFF; type: cell-based; conditions: Homo sapiens, Fibroblast; supplement summary
Experimental: Toxicity assays used WST-1 cell proliferation reagent (Roche) as in Fomovska et al. ([2012a]). HFF were grown on a flat, clear-bottomed, black 96-well plate. Confluent HFF were treated with inhibitory compounds at concentrations of 10 and 50 μM. Compounds were diluted in IMDM-C, and 20 μL were added to each designated well, with triplicates for each condition. A gradient with 2-folddecreasing concentrations of DMSO from 10 to 0% in colorless, translucent IMDM-C was used as a control. The plate was incubated for 72 h at 37°C. Ten microlitre WST-1 reagent (Roche) were added to each well. Cells were incubated for 30–60 min. Absorbance was read using a fluorimeter at 420 nm. A higher degree of color change (and absorbance) indicated mitochondrial activity and cell viability.

[2] = test system: cytochrome P450 (CYP 450), 4 of 5 isoforms tested; test: CYP450 inhibition; type: in vitro ADME; conditions: human; 4/5 isoforms
CYP450 2C9 = CYP450 2C9 (Homo sapiens, UniProt P11712); test: CYP450 inhibition, 2C9; type: in vitro ADME
T. gondii Me49 strain = test: Established chronic Me49 infection of Balb/C mice, brain cysts; type: in vivo, Toxoplasma gondii; conditions: treatment begun day 30 after infection, IP daily for 14 days
Experimental: In separate experiments, Balb/C mice were infected IP with 20 × 10^3 T. gondii Me49 strain tachyzoites. In these separate studies of mice with established chronic infection, after 30 days, IP treatment with JAG21 was begun each day for 14 days. JAG21 was dissolved in DMSO and administered IP in a total volume of 0.05 mL. In experiments when tafenoquine was administered alone or with JAG21 in some groups 3 mg/kg tafenoquine was administered once on day−1 from when JAG21 treatment was initiated. Cysts in brain were quantitated on day […], 16 days after discontinuing JAG21. Immunoperoxidase staining was performed. Parasite burden was quantitated in two ways. The first was using a positive pixel count algorithm of Aperio ImageScope software. Positive pixels were normalized to tissue area (mm^2). Briefly, automated quantitation was done by counting positive pixels per square area. The entire brain in one section was scanned for each mouse. The Cyst burden was quantitated as units of positive pixels per mm^2. The average ± S.E.M. numbers of mm^2 per slide quantitated was 30.2±1.6 square mm per mouse for this quantification. Each highpower field of view shown in Figure 5C is ~0.02 mm^2 per field of view. Cysts on each slide for each condition in two biological replicate experiments were also quantitated by 2 separate observers independently and results compared with automated counting, separately.

T. gondii RH tachyzoites = test: RH YFP challenge, oral nanoformulation of JAG21; type: in vivo, Toxoplasma gondii; conditions: for parasite burden reduced: peritoneal fluid 5 days later
Experimental: JAG21 was prepared using hydroxyethyl cellulose (HEC) and Tween 80. Briefly, this dispersant solution containing 5 mg/mL HEC and 2 mg/mL Tween 80 in water was prepared. Solid JAG21 was added to 20 mg/mL, and the dispersion was sonicated for 60 s using a Sonics vc50 probe-tip sonicator set to 20 kHz to homogenize. Sonication was performed at room temperature. Aliquots of the homogeneous dispersion were frozen and lyophilized using a VirTis AdVantage freeze drier. These aliquots were stored at room temperature for 5–6 months. Prior to dosing, aliquots were reconstituted using water. Controls containing no JAG21 were also prepared. Following reconstitution with water, the dispersion was imaged using a Nikon ECLIPSE E200 optical microscope set to 40x magnification. The average particle size of the JAG21 dispersion in HEC/Tween 80 was determined using an in-house image analysis program. This novel method to stably formulate JAG21 was discovered after all other studies were completed and this was the last experiment in this manuscript performed as a consequence.
For studies of the nano formulated JAG 21, this was administered for 1 or 3 days by gavage in the doses shown in the results section. These C57BL6 background mice received 2000 RH tachyzoites IP. on day the first day of the experiment and peritoneal fluid was collected 5 days later to quantitate fluorescence and numbers of parasites.

[3] = test system: T. gondii RH-YFP tachyzoites; test: Synergy studies with RH strain YFP tachyzoites; type: cell-based, Toxoplasma gondii
Experimental: Atovaquone and pyrimethamine were used to test whether they are synergistic with JAG21. Serial dilutions of the combination of JAG21 and either atovaquone or pyrimethamine were used in an in vitro challenge assay as described above. The EC50 of each compound and the combination of two compounds were determined. The effect of the combination of drugs was calculated with the following formula:C= [A]c/[A]a+[B]c/[B]a. If C is lower than 1, the two compounds tested have synergistic effect; if C is >1, the two compounds tested have antagonist effect and if C is 1 they are additive.

Sequence of CYP450 2C9 (P11712 whole entry): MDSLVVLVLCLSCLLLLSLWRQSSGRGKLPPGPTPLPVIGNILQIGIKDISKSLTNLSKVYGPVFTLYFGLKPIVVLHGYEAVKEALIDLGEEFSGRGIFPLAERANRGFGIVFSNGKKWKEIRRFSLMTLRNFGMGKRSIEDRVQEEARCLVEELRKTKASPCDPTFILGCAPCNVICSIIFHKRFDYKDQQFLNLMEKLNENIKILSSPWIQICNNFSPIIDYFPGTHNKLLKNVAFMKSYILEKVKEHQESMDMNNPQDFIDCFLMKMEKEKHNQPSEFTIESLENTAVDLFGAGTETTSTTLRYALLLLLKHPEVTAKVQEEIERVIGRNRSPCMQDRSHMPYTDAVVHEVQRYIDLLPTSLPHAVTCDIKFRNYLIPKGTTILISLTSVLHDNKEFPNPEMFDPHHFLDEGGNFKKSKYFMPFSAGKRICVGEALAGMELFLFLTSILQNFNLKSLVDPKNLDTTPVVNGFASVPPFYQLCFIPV

Cc1[nH]c2c(c(=O)c1-c1ccc(Oc3ccc(OC(F)(F)F)cc3)cc1)CCCC2 [JAG21, 2-Methyl-3-(4-(4-(Trifluoromethoxy)Phenoxy)Phenyl)-5,6,7,8-Tetrahydroquinolin-4-One]
IC50 [1]: > 7.5 µM | IC50 [2]: > 10 µM | IC50 (CYP450 2C9): 4 µM | Me49 brain cysts (T. gondii Me49 strain): marked, statistically significant reduction; also recorded: markedly reduce | parasite burden reduced (T. gondii RH tachyzoites; single dose 10 mg/kg): ~ 60% | parasite burden reduced (T. gondii RH tachyzoites; single dose 20 mg/kg): ~ 60% | parasite burden (T. gondii RH tachyzoites; three doses of 10 mg/kg on first 3 days, fifth day): markedly reduced | effect of combination with pyrimethamine ([3]; data not shown): no antagonism was observed | effect of combination with atovaquone ([3]; isobologram): synergy
